Assay results published in ChEMBL document CHEMBL1133185, “Inhibition of clinically relevant mutant variants of HIV-1 by quinazolinone non-nucleoside reverse transcriptase inhibitors” (J Med Chem, 2000).

Assays:
[1] = tested on: Human immunodeficiency virus 1; assay: Compound was evaluated for the inhibition of wilde-type RF strain of HIV-1; format: functional
[2] = target: Human immunodeficiency virus type 1 reverse transcriptase (Human immunodeficiency virus 1) (UniProt Q72547); assay: Compound was evaluated for the inhibition of HIV-1 Reverse transcriptase
[3] = tested on: Human immunodeficiency virus 1; assay: Antiviral activity toward K103N mutant HIV-1 virus as protein binding adjusted (PB adj).; format: functional
[4] = tested on: Human immunodeficiency virus 1; assay: Antiviral activity against HIV-1 K103N mutant virus.; format: functional; details: Human immunodeficiency virus 1
[5] = tested on: Human immunodeficiency virus 1; assay: In vitro antiviral activity against HIV-1 (L100I).; format: functional
[6] = target: Human immunodeficiency virus type 1 reverse transcriptase (Human immunodeficiency virus 1, UniProt Q72547); assay: Inhibition of HIV-1 reverse transcriptase.
[7] = tested on: Human immunodeficiency virus 1; assay: Antiviral activity was evaluated for the inhibition of wild-type RF strain of HIV-1 in an in vitro enzyme assay.; format: functional
[8] = target: Human immunodeficiency virus type 1 reverse transcriptase (Human immunodeficiency virus 1) (UniProt Q72547); details: Plasma
Description: Effect of human plasma protein binding on antiviral efficacy.

[9] = tested on: Human immunodeficiency virus 1; assay: Compound was evaluated for antiviral activity against L100I mutant virus; format: functional
[10] = tested on: Human immunodeficiency virus 1; assay: The compound was evaluated for the effect of human plasma protein binding on antiviral efficacy; format: functional; details: Human immunodeficiency virus 1, Plasma
[11] = species on record: Homo sapiens; assay: (§1) percentage of the free compound in human serum; format: cell-free
[12] = species on record: Homo sapiens; assay: (§2) percentage of the free compound in tissue culture medium
[13] = tested on: Human immunodeficiency virus 1; assay: Plasma Potency against Mutant HIV-1 K103N; format: functional; details: Human immunodeficiency virus 1, Plasma
[14] = tested on: Human immunodeficiency virus 1; assay: Potency against Mutant HIV-1 K103N; format: functional
[15] = tested on: Human immunodeficiency virus 1; assay: Calculated Potency against Mutant HIV-1 K103N; format: functional
[16] = tested on: Human immunodeficiency virus 1; assay: Calculated Potency against Mutant HIV-1 sL100I; format: functional
[17] = tested on: Human immunodeficiency virus 1; assay: Plasma Potency against Mutant HIV-1 sL100I; format: functional; details: Human immunodeficiency virus 1, Plasma
[18] = tested on: Human immunodeficiency virus 1; assay: Potency against Mutant HIV-1 sL100I; format: functional
[19] = tested on: MT2; assay: Antiviral activity against E, Zidovudine resistant clinical strain of HIV in MT-2 cells by yield assay; format: functional; details: Homo sapiens
[20] = tested on: MT2; assay: Antiviral activity against HIV-2 in MT-2 cells by yield assay; format: functional; details: Homo sapiens
[21] = tested on: MT2; assay: Antiviral activity against RF strain of HIV in MT-2 cells by RNA assay; format: functional; details: Homo sapiens
[22] = tested on: MT2; assay: Antiviral activity against RF strain of HIV in MT-2 cells by yield assay; format: functional; details: Homo sapiens
[23] = tested on: MT2; assay: Protein Binding was evaluated by PB shift in MT-2 by RNA assay; format: functional; details: Homo sapiens
[24] = tested on: Human immunodeficiency virus 1; assay: Calculated Potency against Mutant HIV-1 sV179D/L100I/Y181C; format: functional
[25] = tested on: Human immunodeficiency virus 1; assay: Plasma Potency against Mutant HIV-1 sV179D/L100I/Y181C; format: functional
[26] = tested on: Human immunodeficiency virus 1; assay: Potency against Mutant HIV-1 sV179D/L100I/Y181C; format: functional
[27] = tested on: Human immunodeficiency virus 1; assay: Plasma antiviral activity was evaluated for RF strain of HIV-1; format: functional
[28] = tested on: Human immunodeficiency virus 1; assay: Antiviral activity against Thai 9466, a wild-type clinical strain of HIV in PBMC by P24 assay; format: functional
[29] = species on record: Homo sapiens; assay: as §1; format: functional
[30] = species on record: Homo sapiens; assay: as §2; format: functional

Row | SMILES | IC90 [3] | IC90 [4] | IC90 [5] | IC50 [6] | IC90 [7] | IC90 [8] | further results
1 | CC(C)C#C[C@@]1(C(F)(F)F)NC(=O)Nc2ccc(F)c(F)c21 | – | – | – | – | – | – | IC90 [1]: 0.229 µM; IC90 [2]: 1.52 µM
2 | O=C1Nc2ccc(F)c(Cl)c2[C@@](C#CC2CC2)(C(F)(F)F)N1 | 0.178 µM | 0.018 µM | 0.016 µM | 0.059 µM | 0.0027 µM | 0.027 µM | –
3 | O=C1Nc2ccc(Cl)cc2[C@@](C#Cc2ccccn2)(C(F)(F)F)N1 | 3.73 µM | 0.16 µM | 0.064 µM | 0.129 µM | 0.0034 µM | 0.079 µM | –
4 | O=C1Nc2ccc(F)c(F)c2[C@@](C#Cc2ccccn2)(C(F)(F)F)N1 | 1.31 µM | 0.109 µM | 0.037 µM | 0.068 µM | 0.002 µM | 0.024 µM | –
5 | CCC#C[C@]1(C(F)(F)F)NC(=O)Nc2ccc(F)c(F)c21 | 0.093 µM | 0.014 µM | – | 0.074 µM | 0.0015 µM | – | IC90 [9]: 0.018 µM; IC90 [10]: 0.01 µM
6 | O=C1Nc2ccc(F)c(F)c2[C@@](/C=C/C2CC2)(C(F)(F)F)N1 | – | – | – | – | – | – | Free [11]: 3%; Free [12]: 53%; IC90 [13]: 0.37 µM; IC90 [14]: 0.021 µM; IC90 [15]: 0.011 µM; IC90 [16]: 0.0031 µM; IC90 [17]: 0.1 µM; IC90 [18]: 0.0059 µM; IC90 [19]: 0.0029 µM; IC90 [20]: > 2.8 µM; IC90 [21]: 0.002 µM; IC90 [22]: 0.0027 µM; IC90 [23]: 0.0035 µM; IC90 [24]: 0.13 µM; IC90 [25]: 4.3 µM; IC90 [26]: 0.25 µM; IC90 [27]: 0.033 µM
7 | COc1ccc2c(c1)[C@@](C#Cc1ccccc1)(C(F)(F)F)NC(=O)N2 | 3.59 µM | 0.283 µM | 0.462 µM | 0.219 µM | 0.0032 µM | 0.042 µM | –
8 | O=C1Nc2cccc(Cl)c2[C@@](C#CC2CC2)(C(F)(F)F)N1 | 0.441 µM | 0.063 µM | 0.07 µM | 0.072 µM | 0.0025 µM | 0.018 µM | –
9 | O=C1Nc2ccc(F)c(F)c2[C@@](C#Cc2ccccc2)(C(F)(F)F)N1 | 1.34 µM | 0.191 µM | 0.256 µM | 0.181 µM | 0.0062 µM | 0.043 µM | –
10 | CCC#C[C@]1(C(F)(F)F)NC(=O)Nc2ccc(F)cc21 | 0.71 µM | 0.071 µM | – | 0.054 µM | 0.0025 µM | 0.025 µM | IC90 [9]: 0.074 µM
11 | O=C1Nc2ccc(F)c(F)c2[C@](C#CC2CC2)(C(F)(F)F)N1 | – | – | – | – | – | – | IC90 [1]: 0.101 µM; IC90 [2]: 6.6 µM
12 | O=C1Nc2ccc(Cl)cc2[C@@](/C=C/C2CC2)(C(F)(F)F)N1 | – | – | – | – | – | – | IC90 [13]: 0.55 µM; IC90 [14]: 0.027 µM; IC90 [15]: 0.011 µM; IC90 [16]: 0.0043 µM; IC90 [17]: 0.22 µM; IC90 [18]: 0.011 µM; IC90 [19]: 0.0013 µM; IC90 [20]: > 2.8 µM; IC90 [21]: 0.0021 µM; IC90 [22]: 0.0019 µM; IC90 [23]: 0.0037 µM; IC90 [24]: 0.12 µM; IC90 [25]: 6 µM; IC90 [26]: 0.32 µM; IC90 [28]: 0.0009 µM; IC90 [27]: 0.04 µM; Free [29]: 2%; Free [30]: 39%
